The subject of experiment [1] is clinical resistant strain of Klebsiella pneumoniae 38206. In words: Chessboard combination test, bacterial inhibition rate / MIC / FIC. The class given is cell-based. As to conditions: FIG. 2. The protocol:
(§1) 1) a standard strain of Klebsiella pneumoniae ATCC13883, a clinical resistant strain of Klebsiella pneumoniae 38206, a standard strain of Acinetobacter baumannii ATCC19606, a standard strain of Escherichia coli ATCC25922, and a standard strain of Pseudomonas aeruginosa ATCC27853 were respectively cultured at 37° C. and under shaking at 220 rpm until OD600=0.6-0.8, where OD600 referred to the absorbance of the solution at a wavelength of 600 nm.
(§2) 2) The density of each bacterial culture with OD600=0.6-0.8 cultured in step 1) was adjusted to OD600=0.001 and placed in a chessboard experimental device.
(§3) 3) Polymyxin B was subjected to 2-fold serial dilution along the horizontal axis, and dronedarone was subjected to 2-fold serial dilution along the vertical axis.
(§4) 4) A blank group (added with a LB broth medium) and a control group (added with a LB broth medium and the standard bacterial solution cultured in step 1).
(§5) 5) The final volume in each well of a 96-well plate was controlled to be 100 μL. After incubation for 18 h, each well was added with 10 μL of MTT, incubated at a condition of 37° C. with protection from light for 30 min, and then determined for the absorbance at 600 nm with a microplate reader. The bacterial inhibition rate was calculated according to the formula: bacterial inhibition rate (%)=1−(OD600 of an experimental group−OD600 of the blank group)/(OD600 of the control group−OD600 of the blank group)×100%, and a bacterial calorimetry diagram was drawn (the results were shown in FIGS. 1-5).
(§6) The calculation equation of the FIC index was as follows:
(§7) FIC=MICab/MICa+MICba/MICb=FICa+FICb, wherein a represented the dronedarone, b represented the polymyxin B, MICab was a MIC value of a combination of the dronedarone and the polymyxin B, MICba was a MIC value of a combination of the polymyxin B and the dronedarone, MICa or MICb was a MIC value of the dronedarone or the polymyxin B, respectively, and FICa or FICb was a FIC value of the dronedarone or the polymyxin B, respectively.

For experiment [2], the system named is standard strain of Acinetobacter baumannii ATCC19606. The experiment is described as above. In kind it is cell-based. As to conditions: FIG. 3. As to the method: as §1, §2, §3, §4, §5, §6, §7
Experiment [3] deals with standard strain of Escherichia coli ATCC25922. The description is as above. The conditions noted are these: FIG. 4. In kind it is cell-based. As to the method:
as §1, §2, §3, §4, §5, §6, §7

Experiment [4] concerns standard strain of Klebsiella pneumoniae ATCC13883. The experiment is described as above. In kind it is cell-based. The conditions noted are these: FIG. 1. The protocol: as §1, §2, §3, §4, §5, §6, §7
The test system of experiment [5] is standard strain of Pseudomonas aeruginosa ATCC27853. The description is as above. The class given is cell-based. As to conditions: FIG. 5. The protocol:
as §1, §2, §3, §4, §5, §6, §7

In experiment [6] the test system is clinical polymyxin B-resistant strain of Klebsiella pneumoniae (38206). The experiment can be described thus: Mouse lung infection model, survival. In kind it is in vivo, BALB/c female mice. As to conditions: intraperitoneal injection, 7 days. As to the method: The dronedarone and the polymyxin B were combined to form a pharmaceutical composition, and used in combination in a mouse infection model to further illustrate the present disclosure.
1) Establishment of lung infection model: 60 BALB/c female mice aged 6-8 weeks (weighing about 20 g) were injected intrapulmonically with a lethal dose of a clinical polymyxin B-resistant strain of Klebsiella pneumoniae (38206) to establish an infection model. The concentration of the clinical polymyxin B-resistant strain of Klebsiella pneumoniae 38206 was 1.0×10^8 CFUs per mouse;
2) Group treatment: The female mice were randomly divided into six groups (n=10 mice per group), and treated with the drug through intraperitoneal injection.
Among them, the six groups included a control group (injected with a PBS buffer), a treatment group I (injected with 0.2 mg/kg of the polymyxin B alone), a treatment group II (injected with 10 mg/kg of the dronedarone alone), a treatment group III (injected with a mixed solution of 0.2 mg/kg of the polymyxin B and 1 mg/kg of the dronedarone), a treatment group IV (injected with a mixed solution of 0.2 mg/kg of the polymyxin B and 5 mg/kg of the dronedarone), and a treatment group V (injected with a mixed solution of 0.2 mg/kg of the polymyxin B and 10 mg/kg of the dronedarone). […]

Setting [7] is: in combination with polymyxin B 0.25 μg/mL.
Setting [8] is: in combination with dronedarone 2.5 μg/mL.
[9] abbreviates: in combination with dronedarone 5 μg/mL.
Where [10] appears, read: polymyxin B 1 μg/mL, dronedarone not used.
Where [11] appears, read: polymyxin B 2 μg/mL, dronedarone not used.

In the case of `CCCCc1oc2ccc(NS(C)(=O)=O)cc2c1C(=O)c1ccc(OCCCN(CCCC)CCCC)cc1` [dronedarone, N-[2-butyl-3-[4-[3-(dibutylamino)propoxy]benzoyl]-1-benzofuran-5-yl]methanesulfonamide], the inhibition at 20 µg/mL in experiment [1] (Klebsiella pneumoniae, dronedarone alone at highest concentration 20 μg/mL, no polymyxin B, read-out: bacterial inhibition percentage) is around 0%; in experiment [2] (Acinetobacter baumannii, ATCC19606, dronedarone alone at highest concentration 20 μg/mL, no polymyxin B, read-out: bacterial inhibition percentage), around 0%; in experiment [3] (Escherichia coli, ATCC25922, dronedarone alone at highest concentration 20 μg/mL, no polymyxin B, read-out: bacterial inhibition percentage), around 0%; in experiment [4] (Klebsiella pneumoniae, ATCC13883, dronedarone alone at highest concentration 20 μg/mL, no polymyxin B, read-out: bacterial inhibition percentage) it was around 0%; in experiment [5] (Pseudomonas aeruginosa, ATCC27853, dronedarone alone at highest concentration 20 μg/mL, no polymyxin B, read-out: bacterial inhibition percentage), around 0%. Moreover, the MIC was above 20 µg/mL in experiment [1] (Klebsiella pneumoniae, used alone, read-out: MIC used alone (MICa, MICb)); above 20 µg/mL in experiment [2] (Acinetobacter baumannii, ATCC19606, used alone, read-out: MIC used alone (MICa, MICb)); above 20 µg/mL in experiment [3] (Escherichia coli, ATCC25922, used alone, read-out: MIC used alone (MICa, MICb)); above 20 µg/mL in experiment [4] (Klebsiella pneumoniae, ATCC13883, used alone, read-out: MIC used alone (MICa, MICb)); above 20 µg/mL in experiment [5] (Pseudomonas aeruginosa, ATCC27853, used alone, read-out: MIC used alone (MICa, MICb)). In addition, the “MICab (MIC of dronedarone after combination with polymyxin B)” value was 2.5 µg/mL in experiment [1] (in combination with polymyxin B 4 μg/mL); 5 µg/mL in experiment [2] (setting [7]); 5 µg/mL in experiment [3] (setting [7]); 2.5 µg/mL in experiment [4] (in combination with polymyxin B 0.13 μg/mL); 10 µg/mL in experiment [5] (in combination with polymyxin B 1 μg/mL). The survival rate in experiment [6] (dronedarone alone 10 mg/kg) came to 10%.

As for polymyxin B, the “MICba (MIC of polymyxin B after combination with dronedarone)” value in experiment [1] (setting [8]) is 4 µg/mL; in experiment [2] (setting [9]), 0.25 µg/mL; in experiment [3] (setting [9]), 0.25 µg/mL; in experiment [4] (setting [8]), 0.13 µg/mL; in experiment [5] (in combination with dronedarone 10 μg/mL) it was 1 µg/mL. The inhibition percentage in experiment [1] (polymyxin B 16 μg/mL, dronedarone not used) came to 100%; in experiment [2] (setting [10]) it was 100%; in experiment [3] (setting [10]) it was 100%; in experiment [4] (setting [11]), 100%; in experiment [5] (setting [11]) it was 100%. Besides, the “MIC used alone (MICa, MICb)” value in experiment [1] (used alone) was 16 µg/mL; in experiment [2] (used alone), 2 µg/mL; in experiment [3] (used alone), 1 µg/mL; in experiment [4] (used alone), 2 µg/mL; in experiment [5] (used alone), 2 µg/mL. Also, the survival rate in experiment [6] (polymyxin B alone 0.2 mg/kg) amounted to 10%.

As usually defined, the inhibition is the percentage by which the read-out fell short of the control. For orientation: MIC means the lowest concentration found to suppress growth.

The record behind these values is patent US20250073199A1, “Polymyxin Antibiotic Synergist and Anti-Gram-Negative Bacteria Pharmaceutical Composition” (Artivila Biopharma, priority 2022, published 2025).
